Measured values taken from ChEMBL document CHEMBL1201862, “PubChem BioAssay data set” (2004).
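All cell lines were grown in 96-well plates and treated with compound for 48 hours. The concentration for 50% growth inhibition is given as GI50.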 The source made the active and inactive calls. Cut-off read from the data, not from the text of the source: active = GI50 up to about 1.1 µM and inactive = higher.

What was measured:
Test in all cases: DTP human tumour cell line panel, 48 h
[1] = tested on: A498
[2] = tested on: ACHN
[3] = tested on: EKVX
[4] = tested on: HL-60
[5] = tested on: K562
[6] = tested on: Malme-3M
[7] = tested on: NCI-H23
[8] = tested on: NCI-H522
[9] = tested on: NCI/ADR-RES
[10] = tested on: OVCAR-4
[11] = tested on: OVCAR-5
[12] = tested on: RPMI-8226
[13] = tested on: SK-MEL-28
[14] = tested on: SK-MEL-5
[15] = tested on: SR
[16] = tested on: TK-10
[17] = tested on: U-251
[18] = tested on: UO-31
[19] = tested on: HCT-116
[20] = tested on: SF-539

Structure (SMILES)	GI50 [1]	GI50 [2]	GI50 [3]	GI50 [4]	GI50 [5]	GI50 [6]	GI50 [7]	GI50 [8]	GI50 [9]	GI50 [10]	GI50 [11]	GI50 [12]	GI50 [13]	GI50 [14]	GI50 [15]	GI50 [16]	GI50 [17]	GI50 [18]	GI50 [19]	GI50 [20]
CCNc1cc2c(cc1O)CC[C@@H]1[C@@H]2CC[C@]2(C)[C@@H](O)CC[C@@H]12	1.7 µM (inactive)	8.83 µM (inactive)	16.3 µM (inactive)	1.52 µM (inactive)	0.711 µM (active)	3.75 µM (inactive)	12.9 µM (inactive)	2.04 µM (inactive)	1.04 µM (active)	8.26 µM (inactive)	20.3 µM (inactive)	2.31 µM (inactive)	4.59 µM (inactive)	0.394 µM (active)	1.31 µM (inactive)	19.5 µM (inactive)	1.61 µM (inactive)	6.75 µM (inactive)	–	–
CC1(C)OP(=O)(O)C=C1Sc1ccc([N+](=O)[O-])cc1[N+](=O)[O-]	> 100 µM (inactive)	> 100 µM (inactive)	> 100 µM (inactive)	> 100 µM (inactive)	> 100 µM (inactive)	> 100 µM (inactive)	> 100 µM (inactive)	> 100 µM (inactive)	> 100 µM (inactive)	> 100 µM (inactive)	> 100 µM (inactive)	–	> 100 µM (inactive)	> 100 µM (inactive)	> 100 µM (inactive)	> 100 µM (inactive)	> 100 µM (inactive)	–	> 100 µM (inactive)	> 100 µM (inactive)
COc1ccc(/C=C2\NC(=S)N(CN3CCCCC3)C2=O)cc1	51.9 µM (inactive)	33.9 µM (inactive)	34.4 µM (inactive)	–	34.5 µM (inactive)	30.3 µM (inactive)	77.1 µM (inactive)	30.7 µM (inactive)	26.9 µM (inactive)	20 µM (inactive)	> 100 µM (inactive)	27.1 µM (inactive)	> 100 µM (inactive)	36.1 µM (inactive)	38.1 µM (inactive)	83.6 µM (inactive)	61.7 µM (inactive)	37.1 µM (inactive)	34.6 µM (inactive)	–
CCCOC(=O)C1C2CCC(O2)C1C(=O)O (configuration not stated)	> 100 µM (inactive)	> 100 µM (inactive)	> 100 µM (inactive)	> 100 µM (inactive)	> 100 µM (inactive)	> 100 µM (inactive)	> 100 µM (inactive)	> 100 µM (inactive)	> 100 µM (inactive)	> 100 µM (inactive)	> 100 µM (inactive)	> 100 µM (inactive)	> 100 µM (inactive)	> 100 µM (inactive)	> 100 µM (inactive)	> 100 µM (inactive)	> 100 µM (inactive)	> 100 µM (inactive)	> 100 µM (inactive)	–
O=c1[nH]c(=O)n(C2OC(CO)C(O)C2O)cc1OCCc1ccccc1 (configuration not stated)	> 100 µM (inactive)	> 100 µM (inactive)	> 100 µM (inactive)	> 100 µM (inactive)	–	> 100 µM (inactive)	> 100 µM (inactive)	> 100 µM (inactive)	> 100 µM (inactive)	> 100 µM (inactive)	> 100 µM (inactive)	–	> 100 µM (inactive)	> 100 µM (inactive)	> 100 µM (inactive)	> 100 µM (inactive)	–	–	> 100 µM (inactive)	> 100 µM (inactive)
CN1C(=O)c2ccccc2OC12C=Cc1ccc(O)cc1O2 (configuration not stated)	18.4 µM (inactive)	23 µM (inactive)	18.6 µM (inactive)	17.8 µM (inactive)	24.1 µM (inactive)	–	28.2 µM (inactive)	20.4 µM (inactive)	13.5 µM (inactive)	28.1 µM (inactive)	20.7 µM (inactive)	30.3 µM (inactive)	21.3 µM (inactive)	17.3 µM (inactive)	< 0.01 µM (active)	26.8 µM (inactive)	24.8 µM (inactive)	18.7 µM (inactive)	25.8 µM (inactive)	–
